From ChEMBL document CHEMBL1143406 (Antimicrob Agents Chemother, 2007) come the findings set out here.

What all share (type): ADME, organism-based
Series [1] in a line: Apparent oral clearance in HIV-negative human at 600 mg, po administered every 24 hrs coadministered with 400 mg of atazanavir every 12 hrs. The following applies: in vivo.
A short description of series [2]: Cmax in HIV-negative human at 600 mg, po administered every 24 hrs coadministered with 300 mg of atazanavir every 12 hrs. More on the design: dose 600 mg, route oral. The note with it: in vivo.
Series [3] has as its system Homo sapiens. The experiment in a line: Terminal apparent distribution volume in HIV-negative human at 600 mg, po administered every 24 hrs coadministered with 400 mg of atazanavir every 12 hrs. The following applies: in vivo.
Series [4] is described as follows: Tmax in HIV-negative human at 600 mg, po administered every 24 hrs coadministered with 300 mg of atazanavir every 12 hrs. The following applies: in vivo.
Series [5] is described as follows: Tmax in HIV-negative human at 600 mg, po administered every 24 hrs coadministered with 400 mg of atazanavir every 12 hrs. The note with it: in vivo.
The nature of series [6]: AUC (24 hrs) in HIV-negative human at 600 mg, po administered every 24 hrs coadministered with 400 mg of atazanavir every 12 hrs. The arrangement: time < 24 hr, dose 600 mg, route oral. The note with it: plasma.
Series [7] deals with Homo sapiens. The experiment in a line: Terminal apparent distribution volume in HIV-negative human at 600 mg, po administered every 24 hrs coadministered with 300 mg of atazanavir every 12 hrs. The note with it: in vivo.
Series [8] is described as follows: AUC (24 hrs) in HIV-negative human at 600 mg, po administered every 24 hrs coadministered with 300 mg of atazanavir every 12 hrs. The following applies: plasma. The arrangement: dose 600 mg, time < 24 hr, route oral.
A short description of series [9]: Half life in HIV-negative human at 600 mg, po administered every 24 hrs coadministered with 400 mg of atazanavir every 12 hrs. The note with it: in vivo.
Series [10] can be described thus: Cmax in HIV-negative human at 600 mg, po administered every 24 hrs coadministered with 400 mg of atazanavir every 12 hrs. The arrangement: dose 600 mg, route oral. The note with it: in vivo.
Series [11] in a line: Apparent oral clearance in HIV-negative human at 600 mg, po administered every 24 hrs coadministered with 300 mg of atazanavir every 12 hrs. The following applies: in vivo.
Series [12] in a line: Half life in HIV-negative human at 600 mg, po administered every 24 hrs coadministered with 300 mg of atazanavir every 12 hrs. The following applies: in vivo.

Take `CO[C@H]1/C=C/O[C@@]2(C)Oc3c(C)c(O)c4c(O)c(c(/C=N/N5CCN(C)CC5)c(O)c4c3C2=O)NC(=O)/C(C)=C\C=C\[C@H](C)[C@H](O)[C@@H](C)[C@@H](O)[C@@H](C)[C@H](O)[C@@H]1C`: the CL/F in [1] is 1260 mL/min; in [11] it was 1490 mL/min. Moreover, the Cmax in series [2] was 1.65 µg/mL; in series [10], 1.71 µg/mL. Further, the results for the Vbeta in the series with Homo sapiens [3] and in the series with Homo sapiens [7] were 159 L and 200 L, respectively. The time to peak (Tmax) in series [4] was determined as 3.2 h; in series [5], 3.7 h. For the same compound, the values for the AUC at 24 h in series [6] and in series [8] were 9.4 µg·h/mL and 8.3 µg·h/mL, respectively. For the same compound, the half-life in series [9] is 1.5 h; in series [12], 1.6 h.
